# Measured values from ChEMBL document CHEMBL1144258, “Topochemical model for prediction of anti-HIV activity of HEPT analogs” (Bioorg Med Chem Lett, 2005).
# pIC50: −log10 of the molar value.
# System: Human immunodeficiency virus 1
# Experiment: Inhibitory activity against human immunodeficiency virus type 1 (inactive>0.1)
# Format: functional, organism-based
row,Compound,IC50
1,Cc1c(SC2CCCCC2)n(COCNC(=O)CNCP(=O)(O)O)c(=O)[nH]c1=O,Inactive
2,Cc1c(Sc2ccccc2)n(COCc2ccccc2)c(=O)[nH]c1=O,Inactive
3,Cc1c(SC2CCCCC2)n(COCNC(=O)CP(=O)(O)O)c(=O)[nH]c1=O,Inactive
4,Cc1c(SC2CCCCC2)n(COCN(C(=O)c2ccccc2)C(=O)c2ccccc2)c(=O)[nH]c1=O,Inactive
5,CCc1c(Sc2ccccc2)n(COCc2ccc([N+](=O)[O-])s2)c(=O)[nH]c1=O,Inactive
6,Cc1c(Sc2ccccc2)n(COCc2cc3ccccc3o2)c(=O)[nH]c1=O,Inactive
7,Cc1c(SC2CCCCC2)n(COCN2CCNCC2)c(=O)[nH]c1=O,Inactive
8,Cc1c(SC2CCCCN2)n(COCNc2ccccc2)c(=O)[nH]c1=O (stereo not drawn),Inactive
9,Cc1c(SC2CCCCC2)n(COCN(c2ccccc2)c2ccccc2)c(=O)[nH]c1=O,Inactive
10,Cc1c(Sc2ccccc2)n(COCc2cccnc2)c(=O)[nH]c1=O,Inactive
11,Cc1c(Sc2ccccc2)n(COCc2ccco2)c(=O)[nH]c1=O,Inactive
12,Cc1c(Sc2ccccc2)n(COCc2cccs2)c(=O)[nH]c1=O,Inactive
13,Cc1c(Sc2ccccc2)n(COCc2ccc([N+](=O)[O-])s2)c(=O)[nH]c1=O,Inactive

# Next, values leading:
row,IC50,Compound
1,Inactive,Cc1c(SC2CCCCC2)n(COCI)c(=O)[nH]c1=O
2,Inactive,Cc1c(SC2CCCCN2)n(COCSc2ccncc2)c(=O)[nH]c1=O (stereo not drawn)
3,Inactive,Cc1c(SC2CCCCC2)n(COCNC(=O)c2ccccc2)c(=O)[nH]c1=O
4,Inactive,Cc1c(SC2CCCCC2)n(COCN(CC#N)CC#N)c(=O)[nH]c1=O
5,Inactive,Cc1c(SC2CCCCC2)n(COCNC(=O)CCCl)c(=O)[nH]c1=O
6,Inactive,Cc1c(SC2CCCCC2)n(COCSc2ccccc2)c(=O)[nH]c1=O
7,Inactive,Cc1c(Sc2ccccc2)n(COCC2CCCCC2)c(=O)[nH]c1=O
8,Inactive,Cc1c(SC2CCCCN2)n(COCSc2ccccc2)c(=O)[nH]c1=O (stereo not drawn)
9,Inactive,Cc1c(SC2CCCCC2)n(COCNc2ccccc2)c(=O)[nH]c1=O
10,Inactive,Cc1c(SC2CCCCC2)n(COCSc2ccncc2)c(=O)[nH]c1=O
11,Inactive,Cc1c(SC2CCCCC2)n(COCN)c(=O)[nH]c1=O
12,Inactive,Cc1c(SC2CCCCC2)n(COCN2CCOCC2)c(=O)[nH]c1=O
13,Inactive,Cc1c(SC2CCCCC2)n(COCBr)c(=O)[nH]c1=O

# System: Human immunodeficiency virus 1
# Experiment: Inhibitory activity against human immunodeficiency virus type 1
# Format: functional, organism-based
row,Compound,pIC50
1,CCc1c(Sc2cc(C)cc(C)c2)n(COCc2ccco2)c(=O)[nH]c1=O,> 7.00
2,CCc1c(Sc2cc(C)cc(C)c2)n(COCc2ccccc2)c(=O)[nH]c1=O,> 7.00
3,CCc1c(Sc2ccccc2)n(COCc2ccco2)c(=O)[nH]c1=O,> 7.00
4,CCc1c(Sc2cc(C)cc(C)c2)n(COCc2cccs2)c(=O)[nH]c1=O,> 7.00
5,CCc1c(Sc2ccccc2)n(COCc2cccs2)c(=O)[nH]c1=O,> 7.00
6,CCc1c(Sc2ccccc2)n(COCc2cc3ccccc3o2)c(=O)[nH]c1=O,> 7.00
7,CCc1c(Sc2ccccc2)n(COCc2ccccc2)c(=O)[nH]c1=O,> 7.00
